Where “and” joins values, the source holds several entries; their conditions need not be identical. Equal entries are not always repeated.
Test: Strength and degradation profile of tigecycline 20 mg/mL bulk solutions by reversed phase HPLC (effect of temperature, time, pH, dissolved oxygen; Runs A to O)
Type: physicochemical
Conditions: 20 mg/mL
Protocol: The contents of the sample vials are dissolved in diluent. The sample solution is diluted, if necessary, and chromatographed on a reversed phase column using gradient elution. Impurities are determined by comparing the impurity peak areas in the sample preparation chromatogram to the average area of tigecycline peaks in the standard preparation chromatograms obtained concomitantly.
Chromatographic Column—Length about 15 cm, inside diameter about 4.6 mm, packed with Inertsil ODS2, 5 μm size particles or equivalent.
Detector—Ultraviolet spectrophotometric detector capable of operating at 248 nm with a sensitivity of about 0.5 absorbance units full scale.
The results of additional studies to investigate the effect of processing parameters such as temperature, time, and dissolved oxygen content on the purity profile of tigecycline solutions using the following materials, methods and procedures are presented in Tables A to O.
The experiments were run in plastic glove bags under normal laboratory light conditions. Plastic glove boxes will be used to control the headspace of the beakers. The batch size was 200 mL. • 1. Prepare the glove bag with a mixture of nitrogen and air to achieve an oxygen level in the solution as per the design. • 2. Place the jacketed beaker on the magnetic stirrer. Connect it to the cooler. Set the cooler to the desired set point. • 3. Add 200 mL of SWFI in to the beaker. Allow equilibrating. Measure the temperature and oxygen content. When it reaches the desired condition, add accurately weighed API and mix until dissolved. If necessary use spatula to aid dissolution. For pH adjustments, use 4 mL of either 0.1N NaOH or 0.1N HCl and 196 mL of WFI for manufacture. • 4. After complete dissolution, Transfer about 5.5 mL of Solution in vials and stopper them. These vials will be stoppered at the appropriate headspace conditions. Place the vials in appropriate temperature conditions. • 5. Sample the vials at 1, 4, 8, 10, 12 and 24 hours. Send the samples for analysis. Freeze the 10, 12 and 24 samples at −20° C. for analysis the following day. • 6. Measure pH and record color of the solution at each time point. Results
The 1-hour samples were taken directly from the beakers. Samples for later time points were collected in stoppered vials processed in the atmosphere of the bag in order to simulate the headspace conditions then placed in water baths or refrigerator to maintain there respective temperature conditions. This was done to maintain safety in the lab. Disposable plastic glove bags require constant flow of a mixture of nitrogen and air to maintain headspace oxygen level that will result in the desired dissolved oxygen (DO) content in the sample. The pH of samples was measured at each sample points.
Strength and degradation profile was analyzed by HPLC as described above. […] Degradation was slightly higher at higher temperature condition.

[1] = Run #A, 2° C., pH 8.2, Oxygen 2.0 mg/L, hours 1,4,8,10,12,24 at r6-r11
[2] = Run #A, 2° C., pH 8.2, Oxygen 2.0 mg/L, hours 1,4,8,10,12,24 at r17-r22
[3] = Run #B, 8° C., pH 8.2, Oxygen 2.0 mg/L, hours 1,4,8,10,12,24 at r6-r11, 1 hours
[4] = Run #B, 8° C., pH 8.2, Oxygen 2.0 mg/L, hours 1,4,8,10,12,24 at r6-r11, 4 hours
[5] = Run #B, 8° C., pH 8.2, Oxygen 2.0 mg/L, hours 1,4,8,10,12,24 at r6-r11, 8 hours
[6] = Run #B, 8° C., pH 8.2, Oxygen 2.0 mg/L, hours 1,4,8,10,12,24 at r6-r11, 10 hours
[7] = Run #B, 8° C., pH 8.2, Oxygen 2.0 mg/L, hours 1,4,8,10,12,24 at r6-r11, 12 hours
[8] = Run #B, 8° C., pH 8.2, Oxygen 2.0 mg/L, hours 1,4,8,10,12,24 at r6-r11, 24 hours
[9] = Run #B, 8° C., pH 8.2, Oxygen 2.0 mg/L, hours 1,4,8,10,12,24 at r17-r22, 1 hours
[10] = Run #B, 8° C., pH 8.2, Oxygen 2.0 mg/L, hours 1,4,8,10,12,24 at r17-r22, 4 hours
[11] = Run #B, 8° C., pH 8.2, Oxygen 2.0 mg/L, hours 1,4,8,10,12,24 at r17-r22, 8 hours
[12] = Run #B, 8° C., pH 8.2, Oxygen 2.0 mg/L, hours 1,4,8,10,12,24 at r17-r22, 10 hours
[13] = Run #B, 8° C., pH 8.2, Oxygen 2.0 mg/L, hours 1,4,8,10,12,24 at r17-r22, 12 hours
[14] = Run #B, 8° C., pH 8.2, Oxygen 2.0 mg/L, hours 1,4,8,10,12,24 at r17-r22, 24 hours
[15] = Run #C, 2° C., pH 7.7, Oxygen 2 mg/L, hours 1,4,8,10,12,24 at r6-r11
[16] = Run #C, 2° C., pH 7.7, Oxygen 2 mg/L, hours 1,4,8,10,12,24 at r6-r11, 1 h hold time
[17] = Run #C, 2° C., pH 7.7, Oxygen 2 mg/L, hours 1,4,8,10,12,24 at r6-r11, 4 h hold time
[18] = Run #C, 2° C., pH 7.7, Oxygen 2 mg/L, hours 1,4,8,10,12,24 at r6-r11, 10 h hold time
[19] = Run #C, 2° C., pH 7.7, Oxygen 2 mg/L, hours 1,4,8,10,12,24 at r6-r11, 12 h hold time
[20] = Run #C, 2° C., pH 7.7, Oxygen 2 mg/L, hours 1,4,8,10,12,24 at r6-r11, 24 h hold time
[21] = Run #C, 2° C., pH 7.7, Oxygen 2 mg/L, hours 1,4,8,10,12,24 at r17-r22, 1 h hold time
[22] = Run #C, 2° C., pH 7.7, Oxygen 2 mg/L, hours 1,4,8,10,12,24 at r17-r22, 4 h hold time
[23] = Run #C, 2° C., pH 7.7, Oxygen 2 mg/L, hours 1,4,8,10,12,24 at r17-r22, 8 h hold time
[24] = Run #C, 2° C., pH 7.7, Oxygen 2 mg/L, hours 1,4,8,10,12,24 at r17-r22, 10 h hold time
[25] = Run #C, 2° C., pH 7.7, Oxygen 2 mg/L, hours 1,4,8,10,12,24 at r17-r22, 24 h hold time
[26] = Run #D, 8° C., pH 7.7, Oxygen 2.0 mg/L, hours 1,4,8,10,12,24 at r6-r11, after 1 hours

## CN(C)c1cc(NC(=O)CNC(C)(C)C)c(O)c2c1C[C@H]1C[C@H]3[C@H](N(C)C)C(O)=C(C(N)=O)C(=O)[C@@]3(O)C(O)=C1C2=O [Tigecycline]
[1]
  RRT 0.58: 0.06% and 0.07%
  RRT 0.64 9-Amino: BRL (BRL means below reporting limit (meaning less than 0.05% of tigecycline peak))
  RRT 0.74 Epimer: 0.26% and 0.23% and 0.18% and 0.20% and 0.19% and 0.25%
  Strength: 19.901 mg/mL and 19.504 mg/mL and 19.639 mg/mL and 19.610 mg/mL and 19.473 mg/mL and 19.806 mg/mL
[2]
  RRT 1.12: BRL (BRL means below reporting limit (meaning less than 0.05% of tigecycline peak))
  RRT 1.45: 0.06% and 0.08% and 0.07% and 0.09%
  RRT 1.58: BRL (BRL means below reporting limit (meaning less than 0.05% of tigecycline peak))
  RRT 1.64 Mino: 0.10% and 0.11%
  RRT 1.85 MW = 597: 0.06% and 0.08% and 0.07% and 0.14%
  Total: 0.47% and 0.76% and 0.86% and 1.26% and 1.40% and 1.86%
[3]
  RRT 0.55 MW = 583: 0.11%
  Strength: 19.149 mg/mL
[4]
  RRT 0.55 MW = 583: 0.20%
  Strength: 19.046 mg/mL
[5]
  RRT 0.55 MW = 583: 0.27%
  Strength: 18.795 mg/mL
[6]
  RRT 0.55 MW = 583: 0.32%
  Strength: 19.144 mg/mL
[7]
  RRT 0.55 MW = 583: 0.29%
  Strength: 18.668 mg/mL
[8]
  RRT 0.55 MW = 583: 0.42%
  Strength: 17.784 mg/mL
[9]
  RRT 0.74 Epimer: 0.20%
  RRT 1.64 Mino: 0.10%
  RRT 1.67 MW = 556: 0.14%
  RRT 1.85 MW = 597: 0.08%
  Total: 0.75%
[10]
  RRT 0.74 Epimer: 0.19%
  RRT 1.64 Mino: 0.05%
  RRT 1.67 MW = 556: 0.25%
  RRT 1.85 MW = 597: 0.07%
  Total: 1.12%
[11]
  RRT 0.74 Epimer: 0.23%
  RRT 1.64 Mino: 0.07%
  RRT 1.67 MW = 556: 0.35%
  Total: 1.85%
[12]
  RRT 0.74 Epimer: 0.22%
  RRT 1.64 Mino: 0.11%
  RRT 1.67 MW = 556: 0.29%
  RRT 1.85 MW = 597: 0.09%
  Total: 2.38%
[13]
  RRT 0.74 Epimer: 0.24%
  RRT 1.64 Mino: 0.09%
  RRT 1.67 MW = 556: 0.23%
  Total: 2.61%
[14]
  RRT 1.67 MW = 556: 0.50%
  RRT 1.85 MW = 597: 0.11%
  Total: 5.36%
[15]
  RRT 0.12 MW = 633: BRL (BRL means below reporting limit (meaning less than 0.05% of tigecycline peak))
  RRT 0.64 9-Amino: BRL (BRL means below reporting limit (meaning less than 0.05% of tigecycline peak))
[16]
  RRT 0.58: 0.08%
  RRT 0.74 Epimer: 0.20%
  Strength: 19.339 mg/mL
[17]
  RRT 0.58: 0.06%
  RRT 0.74 Epimer: 0.19%
  Strength: 19.246 mg/mL
Run #C, 2° C., pH 7.7, Oxygen 2 mg/L, hours 1,4,8,10,12,24 at r6-r11, 8 h hold time
  Strength: 19.031 mg/mL
[18]
  RRT 0.74 Epimer: 0.27%
  Strength: 19.415 mg/mL
[19]
  RRT 0.58: 0.07%
  RRT 0.74 Epimer: 0.30%
  Strength: 19.048 mg/mL
[20]
  RRT 0.58: 0.05%
  RRT 0.74 Epimer: 0.21%
  Strength: 19.226 mg/mL
Run #C, 2° C., pH 7.7, Oxygen 2 mg/L, hours 1,4,8,10,12,24 at r17-r22
  RRT 1.12: BRL (BRL means below reporting limit (meaning less than 0.05% of tigecycline peak))
[21]
  RRT 1.45: 0.07%
  RRT 1.64 Mino: 0.10%
  RRT 1.85 MW = 597: 0.06%
  Total: 0.59%
[22]
  RRT 1.64 Mino: 0.09%
  Total: 0.60%
[23]
  RRT 1.45: 0.13%
  RRT 1.64 Mino: 0.11%
  RRT 1.85 MW = 597: 0.07%
  Total: 0.87%
[24]
  RRT 1.85 MW = 597: 0.08%
  Total: 1.20%
Run #C, 2° C., pH 7.7, Oxygen 2 mg/L, hours 1,4,8,10,12,24 at r17-r22, 12 h hold time
  Total: 1.38%
[25]
  RRT 1.45: 0.06%
  Total: 1.52%
Run #D, 8° C., pH 7.7, Oxygen 2.0 mg/L, hours 1,4,8,10,12,24 at r6-r11
  RRT 0.64 9-Amino: BRL (BRL means below reporting limit (meaning less than 0.05% of tigecycline peak))
[26]
  RRT 0.55 MW = 583: 0.08%
  RRT 0.74 Epimer: 0.19%

From patent US20070026080A1, “Manufacturing process for tigecycline” (Wyeth, priority 2005, published 2007)
